{
  "source": "patent EP4613274A1",
  "about": "“SENOLYTIC COMPOUNDS” (Freie Universität Berlin, priority 2024, dated 2025)",
  "key": {"[1]": {"tested_on": "C57/BL6 mice", "experiment": "Rotarod performance test in aged mice", "format": "in vivo", "details": "10-months old mice, 0.25 mg/kg body weight i.v. twice every fortnight, rotarod one month later, versus solvent", "description": "To quantify the global impact of POG on age-related physical decline, a rotarod performance test was conducted, which captures the time mice can run on a rotating rod before falling off due to exhaustion.\nFor the experiments, the results of which are shown in Figure 7A, C57/BL6 mice (10-months old, \"old mice\") were treated twice with POG (0.25 mg/kg body weight, i.v. injected every fortnight; n = 11) or solvent (n = 11), before their physical performance was assessed using a rotarod device one month later (from 4 to 40 rpm in 180 s; acceleration rate: 0.2 rpm/s). For comparison a cohort of untreated young mice (8-weeks old; n = 10) was measured in parallel. Each datapoint represents the maximum time the (previously trained) animal was able to remain on the rotating rod from 5 consecutive runs per mouse."}, "[2]": {"tested_on": "Eµ-myc;Bcl2 lymphoma cells", "experiment": "22-hours cytotoxicity assay (dye exclusion) in therapy-induced senescence (TIS) model", "format": "cell-based, murine", "details": "ADR 0.02 µg/ml for 10 d; for senolytic activity in senescent cells protected by expression of catalase: catalase overexpression, POG for 22 h", "description": "TIS: Eµ-myc;Bcl2 lymphoma cells (with or without catalase overexpression) and senescence-/p53-deficient Eµ-myc; Bcl2 lymphoma cells were treated with ADR (0.02 µg/ml) or solvent.\n(§1) All cells were analyzed at day 10 after start of the treatment and oncogene induction, respectively. Shown in grey in the first (left) column are mean percentages of senescence-associated beta-galactosidase (SA-β-gal)-)positive cells for each treatment. Proliferating cells and their senescent counterpart were exposed to the same increasing concentrations of POG (from left to right: murine Eµ-myc lymphoma cells and primary mouse fibroblasts = 0, 0.2, 0.4, 0.8, and 1.2 µM) POG, for VIS and RS = 0, 2, 3, 4, and 5 µM) POG, and for all others = 0, 1, 2, 3, and 4 µM) POG) for 22 h before measuring their viabilities using a dye exclusion test.\nViability of solvent-treated cells were set to 100% for each treatment and viabilities of POG-treated cells were normalized relative to solvent-treated controls.\nThe senescent state was documented by specific measurement of increased SA-β-galactosidase activity. […] Eµ-myc;Bcl2 lymphoma cells (with or without ectopic catalase overexpression, introduced via stable retroviral gene transfer) and senescence-/p53-deficient Eµ-myc;Bcl2 lymphoma cells were treated with ADR (0.02 µg/ml) or solvent for 10 d. Proliferating cells and their senescent counterpart were exposed to the same increasing concentrations of POG for 22 h before measuring their viabilities using a dye exclusion test (Ghost Dye Red 780, 13-0865-T500, Tonbo). Viability of solvent-treated cells were set to 100% for each treatment and viabilities of POG-treated cells were normalized relative to solvent-treated controls."}, "[3]": {"tested_on": "Primary mouse fibroblasts (MEF)", "experiment": "NMU-induced transformation of MEF, soft-agar colony formation", "format": "cell-based", "details": "2 mM NMU for 5 weeks, POG-4 1.0 µM, 10 weeks in 0.3 % soft-agar", "description": "Primary mouse fibroblasts (MEF) were treated for 5 weeks with 2 mM N-nitroso-N-methylurea (NMU) or solvent to mutagenize their genomes. Selective killing of senescent subpopulation was assessed by measuring the percentage of SA-β-gal positive cells after POG-4 exposure (1.0 µM for 22 h). […] 2 × 10^4 of viable NMU-pre-treated MEF with or without subsequent POG-4 exposure (1.0 µM) from the experiment of Figure 9A were seeded in 0.3 % soft-agar and cultivated for 10 weeks, before formation of colonies (>50 cells/colony) was quantified. Again, means ± SD are illustrated POG-mediated senolysis of DMBA-induced OIS cells was tested; the results are depicted in Figure 10. Like NMU, 7,12-dimethyl-benzoanthracen (DMBA) is known to induce oncogenic mutations across all Ras isoforms. MEF were mutagenized with DMBA (0.25 µg/ml) for 7 days before cells were exposed to increasing concentrations of POG 1 week later. Cell viabilities were measured 22 h later using a dye exclusion assay (right; (Ghost Dye Red 780, 13-0865-T500, Tonbo). SA-β-gal stainings (left) were performed 2 days after POG exposure. Filled circles denote experiments conducted with solvent; filled squares denote experiments conducted with DMBA."}, "[4]": {"tested_on": "Eµ-myc transgenic lymphomas", "experiment": "Overall survival of CTX-treated lymphoma-bearing mice with sequential POG exposure", "format": "in vivo", "details": "CTX 1 × 300 mg/kg i.p. then POG 2 × 0.25 mg/kg i.v.", "description": "The inventors also analyzed the impact of a sequential POG exposure on overall survival in chemotherapy-exposed mice bearing senescence-capable vs. senescence-incapable lymphomas. […] In essence, POG treatment led to reduction of senescent cells in vivo, and extended healthy lifespan of aged and anticancer-treated mice.\nCTX treatment: 1 × 300 mg/kg body weight via i.p., POG treatment: 2 × 0.25 mg/kg body weight via the i.v. application route. Figure 7B illustrates means ± SD, wherein an unpaired two-tailed Student's t test was done for statistical analysis (*P < 0.05)."}, "[5]": {"tested_on": "A549", "experiment": "Virus-induced senescence (VIS) model, dye exclusion viability test", "format": "cell-based, human", "details": "lentivirus MOI = 50, POG-4 for 22 h", "description": "VIS: The human alveolar epithelial adenocarcinom cell line A549 as well as VIS-deficient VeroB4 cells were infected with a high-titer GFP-expressing lentivirus (pCDH-CMV-MCS-EF1-GFP; MOI = 50) to induce VIS.\nas §1\nThe adenocarcinomic alveolar epithelial cell line A549 as well as VIS-deficient VeroB4 cells were infected with a high-titer GFP-expressing lentivirus (pCDH-CMV-MCS-EF1-GFP; multiplicity of infection [MOI] = 50). At day 6, the cells were stained for SA-β-gal before treating them with increasing concentrations of POG-4. After 22 h, the cell viability was measured using a dye exclusion test. Figure 12 illustrates means ± SD."}, "[6]": {"tested_on": "Primary mouse embryo fibroblasts (MEF)", "experiment": "Viability of rotenone-treated MEF with raised cellular NADH (dye exclusion assay)", "format": "cell-based", "details": "500 nM rotenone 2 h prior to POG exposure (1 µM), viability 22 h later", "description": "Increasing cellular NADH levels sensitizes cells towards POG-mediated killing in a H2O2-dependent fashion. Primary mouse embryo fibroblasts (MEF) were stably transduced with a catalase-overexpressing retrovirus or empty virus and exposed to 500 nM rotenone (an NADH dehydrogenase inhibitor used to increase cellular NADH levels via inhibition of the mitochondrial complex I) 2 h prior to POG exposure (1 µM) before measuring cell viabilities 22 h later using a dye exclusion assay (Ghost Dye Red 780, 13-0865-T500, Tonbo). Figure 5 illustrates the results in form of means ± standard deviation (SD)."}, "[7]": {"tested_on": "Liver cell preparations", "experiment": "Ex vivo treatment of liver cell preparations (SA-β-gal, TUNEL, DAPI staining)", "format": "cell-based, C57/BL6 mice", "details": "old (20-months old) mice, ex vivo 22 h, POG 1.5 µM", "description": "Liver cell preparations from young (10-weeks old) and old (20-months old) C57/BL6 mice were treated ex vivo for 22 h with POG (1.5 µM) or solvent. Cells were fixed and stained for SA-β-gal, TUNEL (Terminal deoxynucleotidyl transferase dUTP nick end labeling) and DAPI (4',6-diamidino-2-phenylindole). Percentage of senescent (SA-β-gal-positive) cells present in the viable (TUNEL-negative) liver cell population (Figure 8A) and overall viability of the liver cell population (Figure 8B) was quantified via fluorescence microscopy."}, "[8]": {"tested_on": "hydrogen peroxide", "experiment": "Europium-tetracycline (EuTc) fluorescence assay for hydrogen peroxide generation", "format": "biochemical", "text": "For a confirmation of the POG redox cycling, hydrogen peroxide formed by peroxygenin from elemental oxygen was quantified. For this purpose, a fluorescence-based europium tetracycline assay in 3-(N-morpholino)propanesulfonic acid (MOPS) buffer at pH 6.9, close to the physiological pH, was adapted for monitoring of hydrogen peroxide released from POG-4 (Wolfbeis et al., 2002; Dürkop et al., 2005; Wu et al., 2005; Schrenkhammer et al., 2007) Reportedly, this assay is based on the formation of an quaternary pentagonal bipyramidal Eu(III)-tetracycline (Tc) complex of the stoichiometry Eu2Tc2 (Karthikeyan et al., 2004) in which one equivalent of hydrogen peroxide forms a bridged peroxide complex (µ-H2O2 ligand) (Dehaen et al. 2009) and upon excitation at 405 nm fluoresces at 616 nm. First, the sensitivity of the assay toward hydrogen peroxide was investigated. For that, different hydrogen peroxide concentrations, ranging from 10 µM to 1000 µM, were used to analyze the fluorescence signal (Figures 2A and 2B, curves 6 to 14 and 26 to 34; curves 6 and 26:1000 µM, curves 7 and 27: 800 µM, curves 8 and 28: 400 µM, curves 9 and 29: 200 µM, curves 10 and 30: 100 µM, curves 11 and 31: 50 µM, curves 12 and 32: 25 µM, curves 13 and 33: 10 µM, curves 14 and […]).\nNext, the same assay conditions were applied to quantify hydrogen peroxide formation from POG-4 (V3) (referred to in the following simply as POG-4) having the following formula: [drawing 142] […]\nProtocol: The assay was performed in cuvettes with a base area of 1 cm x 1 cm. Measurement of fluorescence intensity was carried out with a fluorescence spectrometer FP-6500 by Jasco at λem = 616 nm (λex = 405 nm). […]\nH2O2 calibration: DTT (10 µL, 200 mM; 1mM final concentration) were added to Eu2Tc2 (2 mL) solution in a cuvette and equilibrated by stirring for 5 min at 37 °C until the fluorescence signal was constant. […] All measurements were repeated three times and a mean was calculated. […]"}, "[9]": {"tested_on": "C57/BL6 mice", "experiment": "NMU-induced tumorigenesis in vivo (T-cell lymphoma development)", "details": "30 mg NMU/kg i.p. for 5 weeks, POG-4 2 × 0.25 mg kg^-1 i.v. within one week, monitored 300 d; p = 0.0258", "description": "The interference of POG-4 with NMU-induced tumorigenesis was established in vivo (Figure 11). For this purpose, 30 days old C57/BL6 mice were mutagenized for 5 consecutive weeks with 30 mg NMU/kg bodyweight (b.w.) intraperitoneally (i.p.) prior to treatment with POG-4 (2 × 0.25 mg kg^-1 body weight intravenously (i.v.) injected within one week) or solvent, respectively. The mice were subsequently monitored for 300 d and T-cell lymphoma development was plotted as the time between first NMU treatment and tumor manifestation in a Kaplan Meier format. Log-rank [Mantel-Cox] test was used to compare solvent- and POG-treated cohorts."}},
  "data": [
    {"molecule": "Cn1nc(/C=C/c2ccccc2)nc2c(=O)n(C)c(=O)nc1-2", "note": "[POG-4, (E)-1,6-Dimethyl-3-styrylpyrimido[5,4-e][1,2,4]triazine-5,7(1H,6H)-dione]", "values": [
      {"measurement": "running time on rotating rod", "setting": "[1]", "result": "significantly extended the running time"},
      {"measurement": "sensitivity of senescent cells versus non-senescent tumor cells (viability)", "setting": "[2]; then POG for 22 h", "result": "significantly more sensitive"},
      {"measurement": "senolytic activity in senescent cells protected by expression of catalase", "setting": "[2]", "result": "did not exhibit senolytic activity"},
      {"measurement": "senolytic activity in senescent cells protected by expression of catalase", "setting": "[2]; listed as POG", "result": "lack sensitivity"},
      {"measurement": "NMU-induced transformation (soft-agar colonies)", "setting": "[3]", "result": "ablates NMU-induced transformation"},
      {"measurement": "overall survival", "setting": "[4]; senescence-capable p53+/+ Eµ-myc lymphomas, versus DMSO, P = 0.0282", "result": "lived significantly longer"},
      {"measurement": "overall survival", "setting": "[4]; senescence-incapable Eµ-myc;p53-null lymphomas, P > 0.05", "result": "failed to realize such benefit"},
      {"measurement": "senolytic activity against virus-induced senescence", "setting": "[5]", "result": "exhibit senolytic activity"},
      {"measurement": "dependence of activity on cellular NADH levels", "setting": "[6]", "result": "relied on increased levels of the reducing equivalent (NADH)"},
      {"measurement": "percentage of senescent liver cells", "setting": "[7]", "result": "decreased significantly"},
      {"measurement": "time at which the maximum concentration was reached", "setting": "[8]; 5 µM POG-4, 1 mM NADH", "result": "approximately 120 minutes"},
      {"measurement": "hydrogen peroxide concentration in dependence on NADH concentration", "setting": "[8]; POG 1 µM, NADH 0.1 mM to 5 mM", "result": "higher hydrogen peroxide concentration"},
      {"measurement": "generation of H2O2 (fluorescence)", "setting": "[8]; POG-4 0.1 to 5 µM with 1 mM NADH, MOPS buffer pH 6.9, time frame of 300 min", "result": "continuous generation of H2O2"},
      {"measurement": "NMU-induced tumorigenesis (time to tumor manifestation)", "setting": "[9]", "result": "interferes with NMU-induced tumorigenesis in vivo"}
    ]}
  ]
}
